The test system of data set [1] is biliary cancer, KRAS- or BRAF-mutant colorectal cancer. Nature of the data set: Kaplan–Meier PFS and OS, expansion phase cohorts. Format: in vivo, human. On the procedure:
All patients who received ⩾1 dose of binimetinib were included in the safety analysis. Patients in the safety analysis who had ⩾1 measurable lesion at baseline and at least 1 post-baseline disease assessment were evaluable for efficacy. Kaplan–Meier estimates of progression-free survival (PFS) and overall survival (OS) were performed for patients in the expansion phase ([Kaplan and Meier, 1958]) using SAS Version 9.2 (SAS Institute Inc., Cary, NC, USA).

Data set [2] is described as follows: Phase 1 dose escalation: DLTs and MTD. Format: in vivo. The procedure: This multicentre, open-label, phase 1 study comprised two phases: a dose-escalation phase and an expansion phase. In the dose-escalation phase, a modified 3+3 design was employed to determine the MTD of binimetinib administered orally twice daily (BID) in a 21-day treatment cycles. A single dose of binimetinib was administered on day 1 and then BID continuously beginning on day 2 of cycle 1. A starting dose of 30 mg BID was utilised for the dose-escalation phase. The dose was escalated in cohorts of at least three evaluable patients at 45 mg BID, 60 mg BID, and 80 mg BID until MTD was determined. Patients in the expansion phase received continuous BID treatment with binimetinib beginning on day 1 of cycle 1 at the MTD determined in the dose-escalation phase. Patients were instructed to take BID doses 12±2 h apart with water, irrespective of food.
Dose-limiting toxicities (DLTs) were any adverse event (AE) not clearly attributable to the patient's disease, including haematologic toxicities of grade 4 neutropenia for ⩾5 days, febrile neutropenia, grade 4 thrombocytopenia, and grade 3 thrombocytopenia with bleeding. […]

Data set [3] relates to pERK. Nature of the data set: Skin punch biopsy pERK immunohistochemistry. The data set is classed as in vivo, human. The settings on record: cycle 1 day 15. On the procedure:
(§1) Skin punch biopsies (with hair follicles, if feasible) were obtained from patients in the dose-escalation phase and colorectal cancer expansion phase cohorts pre-dose at baseline and post dose within 7 days of cycle 1 day 15 for measurement of Ki67 and pERK expression. Ki67 and pERK expression were determined by immunohistochemistry using a Ki67 rabbit monoclonal antibody (clone 30-9; Ventana Medical Systems, Inc., Tucson, AZ, USA) and a pERK rabbit monoclonal antibody (Thr202/Tyr204, clone 20G11; Cell Signaling Technology, Inc., Danvers, MA), respectively, visualised with DAB and counterstained with haematoxylin. Ki67 was expressed as percentage of tumour cells with positive stain; pERK was expressed as an H-score.

For data set [4], the system named is xenograft models derived from melanoma, colorectal cancer, NSCLC, fibrosarcoma, cholangiocarcinoma, and pancreatic cancer. More on the design: method as in Lee et al, 2010; Woessner et al, 2010. The settings on record: non-clinical data, ref Lee et al, 2010, Woessner et al; cited from earlier work.
Data set [5] concerns ERK phosphorylation. More on the design: method as in Lee et al, 2010. The settings on record: human cell lines; ref Lee et al, 2010; cited from earlier work.
Details of data set [6]: method as in Watanabe et al, 2016. The conditions noted are these: BID; Japanese patients with advanced solid tumours; ref Watanabe et al, 2016; cited from earlier work.
In data set [7] the test system is Ki67. Nature of the data set: Skin punch biopsy Ki67 immunohistochemistry. The data set is classed as in vivo, human. The conditions noted are these: cycle 1 day 15. The procedure: as §1
The mark [8] stands for this setting: BRAF-mutant colorectal cancer cohort (45 mg BID).
Where [9] appears, read: KRAS-mutant colorectal cancer 45 mg dose cohort.
Where [10] appears, read: KRAS-mutant colorectal cancer 60 mg dose cohort.

Consider `Cn1cnc2c(F)c(Nc3ccc(Br)cc3F)c(C(=O)NOCCO)cc21` [binimetinib], for which the “Median OS” value in data set [1] (setting [8]) is reported as 7.1 months; in data set [1] (setting [9]) it was 4.7 months; in data set [1] (setting [10]), 9.1 months; in data set [1] (biliary cohort (60 mg BID)), 4.8 months. Moreover, the “Median PFS” value in data set [1] (setting [8]) stood at 1.4 months; in data set [1] (setting [9]), 1.5 months; in data set [1] (setting [10]), 3.5 months; in data set [1] (biliary cohort (60 mg BID)), 2.1 months. Besides, in data set [2] (human, in vivo, 21 day), the “Recommended phase 2 dose” value was 45 mg. Further, in data set [2] (orally twice daily (BID), 21-day cycles, patients with advanced solid tumours), the “Maximum tolerated dose (MTD)” value was found to be 60 mg. In addition, the “Skin expression of pERK, median (range) percent of baseline” value was 88 (50–100) percent of baseline in data set [3] (30 mg BID (n=4)), 66 (38–189) percent of baseline in data set [3] (45 mg BID (n=22)), 59 (29–72) percent of baseline in data set [3] (60 mg BID (n=7)) and 64 (29–189) percent of baseline in data set [3] (Total (N=33)). Moreover, the “Anti-tumour activity in xenograft models” value in data set [4] is “broad anti-tumour activity”. Moreover, the “Inhibition of ERK phosphorylation” value in data set [5] is reported as “markedly inhibits”. In addition, the “MTD/recommended phase 2 dose” value in data set [6] is given as 45 mg. Moreover, the “Skin expression of Ki67, median (range) percent of baseline” value in data set [7] (30 mg BID (n=4)) was 44 (25–56) percent of baseline; in data set [7] (45 mg BID (n=22)) it was 33 (6–300) percent of baseline; in data set [7] (60 mg BID (n=7)), 31 (17–100) percent of baseline; in data set [7] (Total (N=33)) it was 33 (6–300) percent of baseline.
